Assay results: ChEMBL document CHEMBL1126212, “A peptide-acridine conjugate with ribonucleolytic activity” (1992)
Peptide text beside a SMILES is read from it. * marks the point of attachment. Acridine9carbonyl = O=C(c1c2ccccc2nc2ccccc12)*

Tested on: Escherichia coli
Experiment: Evaluated for the ribosomal RNA cleavage using Gel-permeation analysis as difference in retention time
Assay type: functional

N[C@@H](Cc1c[nH]cn1)C(=O)N1CCC[C@H]1C(=O)N[C@@H](Cc1c[nH]cn1)C(=O)N[C@@H](CCCCNC(=O)c1c2ccccc2nc2ccccc12)C(=O)O (H-HPHK(Acridine9carbonyl)-OH)
Difference in retention time: 3.4 min

Cc1ccc2nc3ccccc3c(C=O)c2c1
Difference in retention time: 0.3 min

NCCCC[C@H](NC(=O)[C@H](Cc1c[nH]cn1)NC(=O)[C@@H]1CCCN1C(=O)[C@@H](N)Cc1c[nH]cn1)C(N)=O (H-HPHK-NH2)
Difference in retention time: 0.2 min
